From a compilation of properties of binary mixtures (doi:10.1021/acs.jced.3c00374)

Assay: xn = mol fraction of the nth substance listed
Conditions: 100 kPa

OCCNCCO + CCCC[n+]1ccn(C)c1.N#C[S-]
x2 = 0
Conditions	speed of sound [m/s]
288.15 K	1761.3
308.15 K	1700.6
318.15 K	1675.6

CCCC[n+]1ccn(C)c1.N#C[S-] + OCCNCCO
speed of sound [m/s]
Conditions	x1 = 0.1008	x1 = 0.2103	x1 = 0.2993	x1 = 0.4027	x1 = 0.5131	x1 = 0.6087	x1 = 0.7102	x1 = 0.8009	x1 = 0.9102	x1 = 1
288.15 K	1764.4	–	1770.6	1773.9	1777.3	–	1783.5	1786.3	1789.8	1792.6
298.15 K	1732.8	1737	–	1744.5	1748.7	1752.4	–	–	1764	1767.5
308.15 K	1704.9	1709.6	–	1717.8	1722.5	–	1731	–	1739.6	1743.4
318.15 K	1680.4	1685.6	1689.8	1694.8	1700	1704.6	1709.4	1713.7	–	–
